Like-named read-outs stand apart in the source and are kept apart here.

Data set [1] concerns African green monkey kidney cells (Vero cells).
Procedure: (§1) In-vitro cytotoxicity of the composition of was carried out on African green monkey kidney cells (Vero cells).
For data set [2] the test system is unchanged. Put plainly: In-vitro cytotoxicity on Vero cells.
Procedure: as §1

Consider `[Na+].[OH-]` [Control-II, Sodium hydroxide], for which, in data set [1], the “Non-toxic level (%)” value is reported as 0.06% and the toxic level is reported as 0.06%.
Take `[Cl-].[Na+]` [Control-I, Sodium chloride]: the toxic level in data set [2] came out at 0.50%. In addition, the “Non-toxic level (%)” value in data set [2] (up to total amount of the composition) came out at 0.50%.

Source of the values: patent US20210068388A1, “A MULTIPURPOSE POTENTIATOR COMPOSITION AND THE METHODS THEREOF” (priority 2017, published 2021).
